This is an account of results in patent publication US6156758A, “Antibacterial quinazoline compounds” (Isis Pharmaceuticals, Inc., priority 1999, dated 2000).

In brackets after ≈: the same amount, converted by molar mass.

What all share (format): cell-based
Test [1] concerns S. pyogenes. The experiment in a line: MIC determination, initial screen, S. pyogenes. To be noted: Streptococcus pyogenes, ATCC14289; Table 1; ATCC 14289 (initial screen); 24 h, A595. The source says: (§1) The Streptococcus pyogenes strains, Klebsiella pneumoniae, Escherichia coli, Staphylococcus aureus, Enterococcus faecalis used in the antibacterial activity studies ATCC 14289, 49399, 13883, 25922, 13709, 29212, respectively, were obtained from the American Type Culture Collection, Rockville, Md. The strain E. coli imp- is a mutant strain of wild type E. coli with increased outer membrane permeability. In initial screens, E. coli imp- and S. pyrogenes (ATCC 14289) were used. The E. coli imp-strain was grown in LB broth, and the S. pyogenes strain was grown in Todd-Hewitt broth. Interesting compounds were further evaluated in the tier II screens against other bacterial screens. S. aureus was grown in trypticase soy broth, E. faecalis in Todd-Hewitt broth, wild type E. coli and K. pneumoniae, in nutrient broth. All bacterial were grown at 37° C.
(§2) The assays were carried out in 150 μL volume in duplicate in 96-well clear flat-bottom plates. The bacterial suspension from an overnight culture growth in appropriate medium was added to a solution of test compound in 4% DMSO in water. Final bacterial inoculum was approximately 10^5 -10^6 CFU/well. The percent growth of the bacteria in test wells relative to that observed for a well containing no compound was determined by measuring absorbance at 595 nm (A595) after 24 h. […] Both ampicillin and tetracycline were used as antibiotic-positive controls in each screening assay for S. pyogenes, E. coli imp-, E. coli, S. aureus, E. faecalis, K. pneumoniae and P. vulgaris. Ciprofloxacin was used as an antibiotic positive control in each screening assay for P. aeruginosa.

Test [2] deals with E. coli imp-. Put plainly: MIC determination, initial screen, E. coli imp-. To be noted: Escherichia coli, 24 h, read-out: MIC E. coli imp.
From the text: as §1, §2

Test [3] relates to E. faecalis. Put plainly: MIC determination, tier II screen, E. faecalis (#29212). As to conditions: Enterococcus faecalis; Table 2; 24 h, A595.
From the text: as §1, §2

The test system of test [4] is K. pneumoniae. Put plainly: MIC determination, tier II screen, K. pneumoniae (#13883). As to conditions: Klebsiella pneumoniae; Table 2; 24 h, A595.
From the text: as §1, §2

Test [5] concerns S. aureus. Put plainly: MIC determination, tier II screen, S. aureus (#13709). As to conditions: Staphylococcus aureus; Table 2; 24 h, A595.
From the text: as §1, §2

The test system of test [6] is E. coli. Put plainly: MIC determination, tier II screen, wild type E. coli (#25922). To be noted: Escherichia coli, Table 2, 24 h, A595.
From the text: as §1, §2

In test [7] the test system is S. pyogenes. The experiment in a line: MIC determination, tier II screen, S. pyogenes (#49399). As to conditions: Streptococcus pyogenes; Table 2; 24 h, A595.
From the text: as §1, §2

A word on the MIC: it is the least concentration at which growth counts as inhibited. Turning to `COc1cc2nc(N3CCC(Nc4cnc(C(=O)O)c(N)n4)CC3)nc(N)c2cc1OC` [Compound 19, 3-Amino-5-[1-(4-amino-6,7-dimethoxyquinazolin-2-yl)piperidin-4-ylamino]pyrazine-2-carboxylic acid], the MIC in test [1] and in test [2] was over 25 µM each time.
As for `COc1cc2nc(N3CCC(Nc4ccc(C(=O)O)cc4)CC3)nc(Nc3ccc(C)cc3)c2cc1OC` [Compound 31, 4-[1-(6,7-Dimethoxy-4-p-tolylaminoquinazolin-2-yl)piperidin-4-ylamino]benzoic acid], the MIC in test [1] and in test [2] was over 20 µM throughout.
For the compound `CC(C)(C)OC(=O)c1ccc(NC2CCN(c3nc(N)c4ccccc4n3)CC2)cc1` [Compound 17, 4-[1-(4-Aminoquinazolin-2-yl)piperidin-4-ylamino]benzoic acid tert-butyl ester], the minimal inhibitory concentration (MIC) in test [1] and in test [2] was under 100 µM each time.
For the compound `COc1cc2nc(N3CCC(Nc4ccc(C(=O)OC(C)(C)C)cc4)CC3)[nH]c(=O)c2cc1OC` [Compound 15, 4-[1-(6,7-Dimethoxy-4-oxo-3,4-dihydroquinazolin-2-yl)piperidin-4-ylamino]benzoic acid tert-butyl ester], the MIC in test [1] and in test [2] was over 100 µM each time.
In the case of `COC(=O)c1ccc(NC2CCN(c3nc(N)c4cc(OC)c(OC)cc4n3)CC2)nc1` [Compound 3, 6-[1-(4-Amino-6,7-dimethoxy-quinazolin-2-yl)-piperidin-4-ylamino]-nicotinicacid methyl ester], the MIC in test [1] is 25 to 50 µM (≈ 11 to 21.9 µg/mL); in test [2], over 50 µM.
In the case of `COc1cc2nc(N3CCC(Nc4ccc(C(=O)OC(C)(C)C)cc4)CC3)nc(N)c2cc1OC` [Compound 5, 4-[1-(4-Amino-6,7-dimethoxy-quinazolin-2-yl)-piperidin-4-ylamino]-benzoic acid tert-butyl ester], the MIC in test [3] is 6 to 12 µM (≈ 2.88 to 5.75 µg/mL); in test [4], over 100 µM; in test [1], 3 to 6 µM (≈ 1.44 to 2.88 µg/mL); in test [5], over 100 µM; in test [6], over 100 µM; in test [2], 6 to 12 µM (≈ 2.88 to 5.75 µg/mL). Moreover, the MIC in test [7] was in the range of 6 to 12 µM (≈ 2.88 to 5.75 µg/mL).
`COc1cc2nc(N3CCC(Nc4ccc(C(=O)O)cn4)CC3)nc(N)c2cc1OC` [Compound 20, 6-[1-(4-Amino-6,7-dimethoxyquinazolin-2-yl)piperidin-4-ylamino]nicotinic acid]: the results for the minimum inhibitory concentration (MIC) in test [1] and in test [2] were over 20 µM and over 50 µM, respectively.
In the case of `COC(=O)c1ncc(NC2CCN(c3nc(N)c4cc(OC)c(OC)cc4n3)CC2)nc1N` [Compound 2, 3-Amino-5-[1-(4-amino-6,7-dimethoxy-quinazolin-2-yl)-piperidin-4-ylamino]-pyrazine-2-carboxylic acid methyl ester], the minimum inhibitory concentration (MIC) in test [1] and in test [2] was over 50 µM throughout.
With `COC(=O)c1nc(Cl)c(NC2CCN(c3nc(N)c4cc(OC)c(OC)cc4n3)CC2)nc1N` [Compound 1, 3-Amino-5-[1-(4-amino-6,7-dimethoxy-quinazolin-2-yl)-piperidin-4-ylamino]-6-chloro-pyrazine-2-carboxylic acid methyl ester], the values for the MIC in test [1] and in test [2] were 12 to 25 µM (≈ 5.87 to 12.2 µg/mL) and over 25 µM, respectively.
For the compound `COc1cc2nc(N3CCC(Nc4ccc(C(=O)OC(C)(C)C)cc4)CC3)nc(Nc3ccc(C)cc3)c2cc1OC` [Compound 16, 4-[1-(6,7-Dimethoxy-4-p-tolylaminoquinazolin-2-yl)piperidin-4-ylamino]benzoic acid tert-butyl ester], the MIC was in the range of 2.5 to 5 µM (≈ 1.42 to 2.85 µg/mL) in test [1] and 10 to 20 µM (≈ 5.7 to 11.4 µg/mL) in test [2].
Regarding `COc1cc2nc(N3CCC(Nc4ccc(C(=O)O)cc4)CC3)nc(OC)c2cc1OC` [Compound 29, 4-[1-(4,6,7-Trimethoxyquinazolin-2-yl)piperidin-4-ylamino]benzoic acid], the MIC in test [1] and in test [2] was over 20 µM in each case.
On to `COc1cc2nc(N3CCC(Nc4nc(N)c(C(=O)O)nc4Cl)CC3)nc(N)c2cc1OC` [Compound 18, 3-Amino-5-[1-(4-amino-6,7-dimethoxyquinazolin-2-yl)piperidin-4-ylamino]-6-chloropyrazine-2-carboxylic acid], for which the MIC in test [1] and in test [2] was over 100 µM each time.
Consider `COc1cc2nc(N3CCC(Nc4ccc(C(=O)O)cc4[N+](=O)[O-])CC3)nc(N)c2cc1OC` [Compound 21, 4-[1-(4-Amino-6,7-dimethoxyquinazolin-2-yl)piperidin-4-ylamino]-3-nitrobenzoic acid], for which the MIC in test [1] and in test [2] was over 20 µM in each case.
With `Nc1nc(N2CCC(Nc3ccc(C(=O)O)cc3)CC2)nc2ccccc12` [Compound 32, 4-[1-(4-Aminoquinazolin-2-yl)piperidin-4-ylamino]benzoic acid], the MIC in test [1] and in test [2] was over 100 µM each time.
Turning to `COc1cc2nc(N3CCC(Nc4ccc(C(=O)OC(C)(C)C)cc4[N+](=O)[O-])CC3)nc(N)c2cc1OC` [Compound 6, 4-[1-(4-Amino-6,7-dimethoxyquinazolin-2-yl)piperidin-4-ylamino]-3-nitrobenzoic acid tert-butyl ester], the MIC lay within 50 to 100 µM (≈ 26.2 to 52.5 µg/mL) in test [1] and 25 to 50 µM (≈ 13.1 to 26.2 µg/mL) in test [2].
For `COc1cc2cnc(N3CCC(Nc4ccc(C(=O)OC(C)(C)C)cc4)CC3)nc2cc1OC` [Compound 13, 4-[1-(6,7-Dimethoxyquinazolin-2-yl)piperidin-4-ylamino]benzoic acid tert-butyl ester] the same measures were over 20 µM and over 20 µM.
The matching figures for `COc1cc2cnc(N3CCC(Nc4ccc(C(=O)O)cc4)CC3)nc2cc1OC` [Compound 28, 4-[1-(6,7-Dimethoxyquinazolin-2-yl)piperidin-4-ylamino]benzoic acid]: over 20 µM and over 20 µM.
Regarding `COc1cc2nc(N3CCC(Nc4ccc(C(=O)OC(C)(C)C)cc4)CC3)nc(OC)c2cc1OC` [Compound 14, 4-[1-(4,6,7-Trimethoxyquinazolin-2-yl)piperidin-4-ylamino]benzoic acid tert-butyl ester], the MIC in test [1] and in test [2] was under 100 µM in each case.
For `COC(=O)c1ccc(NC2CCN(c3nc(N)c4cc(OC)c(OC)cc4n3)CC2)cc1` [Compound 4, 4-[1-(4-Amino-6,7-dimethoxy-quinazolin-2-yl)-piperidin-4-ylamino]-benzoic acid methyl ester], the MIC in test [3] is 20 to 40 µM (≈ 8.75 to 17.5 µg/mL); in test [4], over 100 µM; in test [1], 5 to 25 µM (≈ 2.19 to 10.9 µg/mL); in test [5], over 100 µM; in test [6] it was over 100 µM; in test [2], 5 to 25 µM (≈ 2.19 to 10.9 µg/mL). The MIC in test [7] lay in the range of 5 to 25 µM (≈ 2.19 to 10.9 µg/mL).
As to `COc1cc2nc(N3CCC(Nc4ccc(C(=O)O)cc4)CC3)nc(N)c2cc1OC` [Compound 22, 4-[1-(4-Amino-6,7-dimethoxyquinazolin-2-yl)piperidin-4-ylamino]benzoic acid], the MIC is over 100 µM in test [3]; 6 to 12 µM (≈ 2.54 to 5.08 µg/mL) in test [4]; over 25 µM in test [1]; 6 to 12 µM (≈ 2.54 to 5.08 µg/mL) in test [5]; 60 to 80 µM (≈ 25.4 to 33.9 µg/mL) in test [6]; 0.4 to 2 µM (≈ 0.169 to 0.847 µg/mL) in test [2]. In test [7], this compound returned an MIC of over 25 µM.
With `COc1cc2nc(N3CCC(Nc4ccc(C(=O)O)cc4)CC3)[nH]c(=O)c2cc1OC` [Compound 30, 4-[1-(6,7-Dimethoxy-4-oxo-3,4-dihydroquinazolin-2-yl)piperidin-4-ylamino]benzoic acid], the MIC in test [1] and in test [2] was over 20 µM throughout.
